Calls of active or inactive are those of the source. The calls are words filed in the database; no cut-off is given here.
Legend:
[1] = target: T1, Son of sevenless homolog 1 (Mus musculus) (UniProt Q62245); test: Inhibition of SOS1 in overnight serum-starved mouse NIH/3T3 cells assessed as reduction in Akt phosphorylation at 20 to 100 uM pre-incubated for 2 hrs before EGF stimulation for 5 mins by Western blot analysis
T1 sequence (whole entry): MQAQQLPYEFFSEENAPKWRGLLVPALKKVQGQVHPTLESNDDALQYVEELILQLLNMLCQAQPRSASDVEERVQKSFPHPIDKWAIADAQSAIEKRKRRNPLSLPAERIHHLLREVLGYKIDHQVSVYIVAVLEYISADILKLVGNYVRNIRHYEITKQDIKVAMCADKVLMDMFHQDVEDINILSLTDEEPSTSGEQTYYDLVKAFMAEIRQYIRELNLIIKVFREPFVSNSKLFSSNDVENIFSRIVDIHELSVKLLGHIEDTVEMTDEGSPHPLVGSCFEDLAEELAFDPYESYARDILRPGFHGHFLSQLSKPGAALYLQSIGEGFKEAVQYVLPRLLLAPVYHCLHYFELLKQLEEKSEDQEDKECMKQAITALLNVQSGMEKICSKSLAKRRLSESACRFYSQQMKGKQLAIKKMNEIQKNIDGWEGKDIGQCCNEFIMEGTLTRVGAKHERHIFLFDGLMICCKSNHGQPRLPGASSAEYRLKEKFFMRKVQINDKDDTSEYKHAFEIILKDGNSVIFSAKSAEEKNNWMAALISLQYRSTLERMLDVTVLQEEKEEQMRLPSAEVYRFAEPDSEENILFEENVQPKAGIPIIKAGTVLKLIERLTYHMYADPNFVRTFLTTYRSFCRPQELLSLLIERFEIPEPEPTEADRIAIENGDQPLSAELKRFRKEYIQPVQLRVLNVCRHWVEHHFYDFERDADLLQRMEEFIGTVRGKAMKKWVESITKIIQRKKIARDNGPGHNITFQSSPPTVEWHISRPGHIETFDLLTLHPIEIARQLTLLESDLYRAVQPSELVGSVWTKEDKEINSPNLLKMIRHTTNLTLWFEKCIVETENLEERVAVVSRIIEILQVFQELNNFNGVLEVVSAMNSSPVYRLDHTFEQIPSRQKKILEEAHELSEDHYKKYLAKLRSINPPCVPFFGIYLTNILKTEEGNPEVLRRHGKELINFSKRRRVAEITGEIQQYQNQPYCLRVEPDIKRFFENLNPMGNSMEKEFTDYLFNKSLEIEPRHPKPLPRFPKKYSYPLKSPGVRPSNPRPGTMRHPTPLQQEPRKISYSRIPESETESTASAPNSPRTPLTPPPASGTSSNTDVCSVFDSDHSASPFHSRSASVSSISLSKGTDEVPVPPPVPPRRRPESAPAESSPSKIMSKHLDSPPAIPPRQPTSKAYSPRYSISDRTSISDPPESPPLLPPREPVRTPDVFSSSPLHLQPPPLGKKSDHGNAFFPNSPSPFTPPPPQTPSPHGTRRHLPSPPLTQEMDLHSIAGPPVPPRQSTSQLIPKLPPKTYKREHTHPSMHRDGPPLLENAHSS

[2] = target: T2, Son of sevenless homolog 1 (Homo sapiens) (UniProt Q07889); test: Inhibition of SOS1 in overnight serum-starved human BxPC3 cells assessed as reduction in ERK phosphorylation at 40 to 60 uM incubated for 2 hrs by Western blotting analysis
T2 sequence (whole entry): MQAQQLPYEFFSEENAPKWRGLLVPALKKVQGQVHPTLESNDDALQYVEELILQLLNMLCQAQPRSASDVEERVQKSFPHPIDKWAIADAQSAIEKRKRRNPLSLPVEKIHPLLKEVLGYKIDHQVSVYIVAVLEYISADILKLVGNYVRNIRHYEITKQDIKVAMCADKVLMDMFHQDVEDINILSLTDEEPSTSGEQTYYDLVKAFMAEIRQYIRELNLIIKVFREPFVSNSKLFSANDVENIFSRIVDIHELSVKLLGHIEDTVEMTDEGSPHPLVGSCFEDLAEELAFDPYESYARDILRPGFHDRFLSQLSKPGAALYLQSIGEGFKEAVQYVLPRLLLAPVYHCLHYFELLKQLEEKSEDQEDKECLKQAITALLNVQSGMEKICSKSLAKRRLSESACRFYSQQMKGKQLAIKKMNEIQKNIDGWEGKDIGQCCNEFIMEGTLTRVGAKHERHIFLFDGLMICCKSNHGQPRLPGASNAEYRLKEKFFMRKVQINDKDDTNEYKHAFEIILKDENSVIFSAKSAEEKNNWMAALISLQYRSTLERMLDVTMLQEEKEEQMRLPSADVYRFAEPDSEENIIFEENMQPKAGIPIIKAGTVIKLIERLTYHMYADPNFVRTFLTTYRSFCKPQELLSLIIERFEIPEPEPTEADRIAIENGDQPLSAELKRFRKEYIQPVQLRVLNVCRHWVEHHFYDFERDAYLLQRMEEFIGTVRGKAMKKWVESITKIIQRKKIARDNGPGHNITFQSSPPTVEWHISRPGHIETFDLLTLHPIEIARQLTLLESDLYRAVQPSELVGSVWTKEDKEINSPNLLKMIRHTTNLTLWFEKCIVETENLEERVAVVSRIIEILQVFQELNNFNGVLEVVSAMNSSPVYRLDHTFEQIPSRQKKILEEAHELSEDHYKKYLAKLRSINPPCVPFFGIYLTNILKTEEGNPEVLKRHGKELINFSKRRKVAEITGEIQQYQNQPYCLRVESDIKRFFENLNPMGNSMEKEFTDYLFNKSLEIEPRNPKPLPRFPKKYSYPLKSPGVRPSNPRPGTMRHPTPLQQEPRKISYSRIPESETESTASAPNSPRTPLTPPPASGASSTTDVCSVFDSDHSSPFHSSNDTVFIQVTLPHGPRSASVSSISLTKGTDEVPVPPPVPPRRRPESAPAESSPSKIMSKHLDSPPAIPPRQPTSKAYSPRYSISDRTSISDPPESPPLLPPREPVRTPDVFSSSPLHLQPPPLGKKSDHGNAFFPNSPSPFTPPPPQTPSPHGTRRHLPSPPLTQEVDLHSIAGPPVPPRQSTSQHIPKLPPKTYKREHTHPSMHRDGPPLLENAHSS

[3] = target: T2, Son of sevenless homolog 1 (Homo sapiens); test: Inhibition of SOS1 in overnight serum-starved human MIAPaCa2 cells assessed as effect on Ras signaling by measuring KRAS expression in presence of GTP and Pan-RAS at 20 to 60 uM by Western blotting analysis
[4] = target: T2, Son of sevenless homolog 1 (Homo sapiens); test: (§1) Inhibition of N-terminal 6x-His-tagged recombinant human SOS1 catalytic domain (residues 564 to 1049 residues) expressed in Escherichia coli BL21 (DE3) assessed as reduction in 50 nM SOS1-mediated GDP/GTP nucleotide exchange upon 2 uM N-terminal-GST-tagged H-Ras (1 to 166 residues) at 20 uM by BODIPY-FL-GDP dissociation assay
[5] = target: Intersectin-1 (Homo sapiens) (UniProt Q15811); test: as §1, with “ITSN1 DH and PH” for “SOS1 catalytic”, “(1227” for “(residues 564”, “1571” for “1049”, “Cdc42” for “H-Ras”, “182” for “166”
Chain of Intersectin-1 (Homo sapiens) (Q15811 whole entry): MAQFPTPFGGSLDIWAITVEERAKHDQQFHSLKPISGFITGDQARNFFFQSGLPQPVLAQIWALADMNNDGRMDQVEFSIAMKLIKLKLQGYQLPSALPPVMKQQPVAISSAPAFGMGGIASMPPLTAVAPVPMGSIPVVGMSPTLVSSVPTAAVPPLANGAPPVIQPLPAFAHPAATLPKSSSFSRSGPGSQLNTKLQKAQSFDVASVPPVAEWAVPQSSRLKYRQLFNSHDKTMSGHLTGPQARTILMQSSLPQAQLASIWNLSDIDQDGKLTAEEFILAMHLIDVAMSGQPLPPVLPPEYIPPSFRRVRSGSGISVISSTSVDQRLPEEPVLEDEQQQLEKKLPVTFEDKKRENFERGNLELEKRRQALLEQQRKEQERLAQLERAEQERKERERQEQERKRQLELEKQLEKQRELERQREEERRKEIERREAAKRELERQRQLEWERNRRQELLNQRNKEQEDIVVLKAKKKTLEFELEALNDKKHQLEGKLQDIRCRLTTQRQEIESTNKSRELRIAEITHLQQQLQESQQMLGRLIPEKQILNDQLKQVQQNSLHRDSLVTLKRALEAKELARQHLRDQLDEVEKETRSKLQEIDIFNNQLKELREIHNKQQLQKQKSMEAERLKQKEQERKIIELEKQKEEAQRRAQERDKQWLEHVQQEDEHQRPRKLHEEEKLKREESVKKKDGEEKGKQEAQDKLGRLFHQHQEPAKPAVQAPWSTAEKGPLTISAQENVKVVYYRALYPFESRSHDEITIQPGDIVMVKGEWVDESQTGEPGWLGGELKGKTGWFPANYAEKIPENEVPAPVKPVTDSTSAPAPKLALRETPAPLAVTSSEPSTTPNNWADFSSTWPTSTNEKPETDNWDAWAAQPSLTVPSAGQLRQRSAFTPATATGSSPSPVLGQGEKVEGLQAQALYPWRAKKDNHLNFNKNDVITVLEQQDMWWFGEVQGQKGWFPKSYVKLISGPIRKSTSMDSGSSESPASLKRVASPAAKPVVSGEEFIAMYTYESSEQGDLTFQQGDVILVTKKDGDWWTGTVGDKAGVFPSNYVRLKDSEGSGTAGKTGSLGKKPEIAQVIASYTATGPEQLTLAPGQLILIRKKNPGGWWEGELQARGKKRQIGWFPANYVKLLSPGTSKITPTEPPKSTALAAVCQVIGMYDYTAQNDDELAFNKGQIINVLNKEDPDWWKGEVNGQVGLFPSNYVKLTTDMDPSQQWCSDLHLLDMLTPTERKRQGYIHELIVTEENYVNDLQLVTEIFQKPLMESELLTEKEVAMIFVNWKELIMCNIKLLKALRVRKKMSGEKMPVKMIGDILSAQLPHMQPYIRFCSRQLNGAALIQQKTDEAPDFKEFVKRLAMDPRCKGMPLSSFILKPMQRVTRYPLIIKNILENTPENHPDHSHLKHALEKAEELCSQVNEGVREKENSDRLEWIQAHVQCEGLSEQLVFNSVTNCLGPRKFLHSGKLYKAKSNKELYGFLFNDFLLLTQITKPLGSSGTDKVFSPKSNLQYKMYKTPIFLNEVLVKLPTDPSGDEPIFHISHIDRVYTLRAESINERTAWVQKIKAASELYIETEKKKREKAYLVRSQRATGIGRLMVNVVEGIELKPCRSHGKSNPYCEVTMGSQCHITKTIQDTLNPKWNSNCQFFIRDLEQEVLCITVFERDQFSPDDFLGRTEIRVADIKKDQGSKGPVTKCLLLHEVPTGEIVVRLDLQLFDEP

O=C1Oc2ccccc2C(=O)/C1=C/N1C(=O)/C(=C/c2ccc([N+](=O)[O-])cc2)SC1=S
inhibition [1]: Active

O=[N+]([O-])c1ccccc1/C=C/C=C1c2ccccc2-c2ccccc21
inhibition [2]: Active
inhibition [3]: inactive

O=C(O)c1cc2c3c(c1)C1C=CCC1C(c1ccccc1Cl)N3CC1CC=CC21 (stereo not given)
inhibition [4]: Active
inhibition [5]: inactive
